Among the data in patent US9085599B2, “2′allene-substituted nucleoside derivatives” (priority 2011, dated 2015) are EC50 values, retold here.

Usually EC50 stands for the concentration needed to bring the measured effect to its halfway point.

Where two headings read alike, the source gives them in different places.

The test system of assay [1] is HCV replicon RNA, genotype 1b (strain Con1). The assay can be described thus: HCV replicon assay qRT-PCR, genotype 1b (SGR 11-7 replicon cell line). The format is cell-based. The note with it: Hepatitis C virus, read-out: 1b EC50. From the text: (§1) HCV replicon cell lines (kindly provided by R. Bartenschlager) isolated from colonies as described by Lohman et al. (Lohman et al. (1999) Science 285: 110-113, expressly incorporated by reference in its entirety) and used for all experiments. One of the HCV replicon cell lines (strain Con1, genotype 1b) has the nucleic acid sequence set forth in EMBL Accession No.: AJ242651, the coding sequence of which is from nucleotides 1801 to 8406. Another replicon cell line (strain H77, genotype 1a) was constructed as described by Yi et. al. (Yi et. al. (2004) Journal of Virology 78(15):7904-15). […]
(§2) EC50 values of single agent compounds were determined by HCV RNA detection using quantitative RT-PCR, according to the manufacturer's instructions, with a TAQMAN® One-Step RT-PCR Master Mix Reagents Kit (Cat#AB 4309169, Applied Biosystems) on an ABI Model 7500 thermocycler. EC50 values of combinations are similarly determined by HCV RNA detection using quantitative RT-PCR. The TAQMAN primers to use for detecting and quantifying HCV RNA obtained from Integrated DNA Technologies. HCV RNA is normalized to GAPDH RNA levels in drug-treated cells, which is detected and quantified using the Human GAPDH Endogenous Control Mix (Applied Biosystems, AB 4310884E). […] Chemical agent cytotoxicity is evaluated using an MTS assay according to the manufacturer's directions (Promega). […]

For assay [2], the system named is HCV replicon RNA, genotype 1a (strain H77). In words: HCV replicon assay qRT-PCR, genotype 1a (Huh-1a7 replicon cell line). The format is cell-based. The following applies: Hepatitis C virus, read-out: 1a EC50.
Excerpt: as §1, §2
A general note: Replicon systems follow genome replication, usually without infectious particles.

With `C=C=C[C@@]1(O)C(O)[C@@H](CO)O[C@H]1n1ccc(=O)[nH]c1=O` (stereo partly shown) [Example 1], the EC50 in assay [1] (Genotype-1b replicon, HCV RNA by qRT-PCR normalized to GAPDH RNA) was over 10 µM; in assay [2] (Genotype-1a replicon, HCV RNA by qRT-PCR normalized to GAPDH RNA) it was over 10 µM.

For `C=C=C[C@@]1(O)C(O)[C@@H](COP(=O)(N[C@@H](C)C(=O)OC)Oc2cccc3ccccc23)O[C@H]1n1ccc(=O)[nH]c1=O` (stereo partly shown) [Example 2], the EC50 in assay [1] and in assay [2] was 1 to 10 µM in each case.
